Experiments:
Type in all cases: cell-based, human
LNCaP Prostate Cell Line = experiment: Dual label UROC28/Bcl-2 flow cytometry after SPB treatment
Experimental: (§1) Cells were grown to 70-80% confluence at 37° C. and 5% CO2 in T-75 tissue culture plastic flasks. SPB stock solution was added to final concentrations of 0.5, 5.0, 10.0, and 25.0 mM in appropriate fresh media to the cell cultures. Cells were incubated at 37° C. and 5% CO2 for 72 hours. Attached cells were then harvested using a solution of 0.05% trypsin and 0.53 mM EDTA (Invitrogen Corp.). Attached cells were then pooled with any the detached cells and washed with PBS pH 7.2. Cell numbers and percent viability were determined using Trypan blue dye exclusion and a hemacytometer. At the time of their use in an experiment the viability was usually about 85% for untreated cells and a range of about 15-70% for treated cells, with the lower viabilities found at higher SPB concentrations (Thompson C, 1995; Cory et al., 1998; van Engeland et al., 1996).
(§2) UC28(C) is 2.14 mg/ml rabbit polyclonal aliquot directed against the inventors' UC28 patented biomarker developed by UCor R&D gene discovery program. The Antibody was produced against a twenty amino acid (AA) synthetic peptide from the predicted AA sequence (AA 21-37) UCor, Inc. 840 Research Parkway Oklahoma City, Okla. 73104.
(§3) Goat Anti-Rabbit CY5 polyclonal Fluorchrome was used as the secondary conjugate for UC28 C rabbit polyclonal antibody and a background control for UC28 C polyclonal. Vendor is Jackson ImmunoResearch Laboratories, Inc. 872 West Baltimore Pike, P.O. Box 9 West Grove, Pa. 19390.
(§4) Bc12 IgG1 kappa-FITC isomer 1 is a purified monoclonal mouse specific for Bc1-2 protein. Vendor is Dalco Corporation 6392 Via Real, Carpinteria, Calif. 93013 USA.
(§5) MsIgG1 kappa-FITC isomer 1 is a purified isotype specific control for Bc1-2 monoclonal antibody. Vendor is Dako Corporation 6392 Via Real, Carpinteria, Calif. 93013 USA.
(§6) Cytofix/Cytoperm™ ICit enables fixation and permeabilization of cells prior to staining with fluorochrome-conjugated antibodies. Vendor is BD-PharMingen, 10975 Torreyana Road, San Diego, Calif. 92121-1106.
(§7) A Coulter Elite engineered with a triple laser system was used to analyze all samples. Coulter control beads were used to align lasers for the dual label testing of cell samples. Laser alignment was required for both the Argon (488 nm line) laser and HeNe (633 nm line) laser. These alignments were performed prior to all measurements with the Argon laser (488 nm line) using fluorophores for FITC, RPE, PI and the HeNe laser (633 nm line) for the Cy5 fluorophores being used for the experiments described below. The histographs, voltage settings, gates, color compensation, and pressures were established prior to all sample processing.
(§8) (a) Tissue culture cells (MLC-SV40, LNCaP and C 4-2B) were aliquoted at concentration of 1×10^6 per teach 12×75 mm polystyrene tube. […]

[1] = tested on: C4-2B Metastatic Prostate Cell Line; experiment: UROC28/Fas label flow cytometry after SPB treatment; details: for Total Fas / Total UC2BC: section UROC28/Fas
Experimental: as §1, §2, §3
CD45 (FAS) IgG1 kappa—(R-phycoerythrin (RPE) is purified monoclonal antibody conjugated with R-phycoerythrin (RPE) that is specific for the FAS protein. Vendor is Dalco Corporation 6392 Via Real, Carpinteria, Calif. 93013 USA MsIgG1 IgG1 kappa R-phycoerythrin (RPE) conjugated goat anti-mouse immunoglobulins is used for (FAS) antibody negative control. Vendor is Dako Corporation 6392 Via Real, Carpinteria, Calif. 93013 USA.
as §7, §8

[2] = tested on: C4-2B Metastatic Prostate Cell Line; experiment: UROC28/Bcl-2 label flow cytometry after SPB treatment; details: for Total Bcl-2 / Total UC2BC: section UROC28/Bcl-2
Experimental: as §1, §2, §3, §4, §5, §6, §7
(a) Tissue culture cells (MLC-SV40, LNCaP and C 4-2B) were aliquoted at concentration of 1×10^6 per teach 12×75 mm polystyrene tube. Label tubes as follows: • (i) No Antibody • (ii) Secondary GAR-CY5 polyclonal=(control for UC28 CIDGARCY5 polyclonal) vs MsIgG1-RPE (control for FAS-RPE monoclonal) • (iii) UC28 C-IDGARCY5 polyclonal vs FAS (CD45)—RPE monoclonal • (iv) SecondaryGAR-CY5 polyclonal=(control for UC28 C-IDGARCY5 polyclonal) vs MsIgG1-FITC (control for Bc12-FITC monoclonal) • (v) UC28 C-IDGARCY5 polyclonal vs Bc12-FITC monoclonal • (vi) UC28 C-IDGARCY5 Polyclonal=(single label for checking instrument after setting Coulter Elite flow cytometer for dual analysis using the three different fluorchromes.) • (vii) FAS ([…])—RPE monoclonal=(single label for checking instrument after setting Coulter Elite flow cytometer for dual analysis using the three different fluorchromes.) • (viii) Bc12-FITC monoclonal=(single label for checking instrument after setting Coulter Elite flow cytometer for dual analysis using the three different fluorchromes.)
(c) A volume of 100 μl of UC28 C rabbit polyclonal unconjugated antibody was added to the appropriately labeled tubes. All other tubes received 100 μl PBS (pH7.3) and all tubes were incubated at room temp in the dark for 1 hour. […]

## O=C([O-])CCCc1ccccc1.[Na+] [SPB, 4-Phenylbutyric Acid, Sodium Salt]
LNCaP Prostate Cell Line; 5.0 mM SPB
  Total Bcl-2: 23.8%
  Total UC2BC: 87.7%
LNCaP Prostate Cell Line; 10 mM SPB
  Total Bcl-2: 15.6%
  Total UC2BC: 83.0%
[1]; 5.0 mM SPB
  Total Fas: 3.6%
  Total UC2BC: 96.4%
[1]; 10 mM SPB
  Total Fas: 6.1%
  Total UC2BC: 94.0%
[1]; SPB, summary of Table 7
  Fas protein expression: markedly depressed
[2]; 5.0 mM SPB
  Total Bcl-2: 5.4%
  Total UC2BC: 96.0%
[2]; 10 mM SPB
  Total Bcl-2: 0.3%
  Total UC2BC: 93.9%
[2]; SPB, summary of Table 7
  Bc1-2 protein expression: markedly depressed
  UC28 expression: significantly up regulated
